# pIC50: −log10 of the molar value.
# Test system: 171881-019-R-J1-PDC tumor spheroid viability
# Experiment: Anticancer human tumor 171881-019-R-J1-PDC patient-derived invasive breast carcinoma cell line growth inhibition [PI3K]
# Conditions: spheroids with HUVEC and MSC; for pIC50: curve of first compound; for viability, T/C: stronger effect = lower value
# How it was run: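 Tumor cells were combined with HUVEC and MSCs into spheroids, then dosed with PI3K-inhibitor combinations over half-log ranges capped near clinical Cmax or 10 microM.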
# [1] = second compound 0.00316 µM, first compound 0.0316 µM
# [2] = second compound 0.00316 µM, first compound 0.1 µM
# [3] = second compound 0.00316 µM, first compound 0.316 µM
# [4] = second compound 0.00316 µM, first compound 1 µM
# [5] = second compound 0.00316 µM, first compound 3.16 µM
# [6] = second compound 0.00316 µM, first compound 10 µM
# [7] = second compound 0.01 µM, first compound 0.0316 µM
# [8] = second compound 0.01 µM, first compound 0.1 µM
# [9] = second compound 0.01 µM, first compound 0.316 µM
# [10] = second compound 0.01 µM, first compound 1 µM
# [11] = second compound 0.01 µM, first compound 3.16 µM
# [12] = second compound 0.01 µM, first compound 10 µM
# [13] = second compound 0.0316 µM, first compound 0.0316 µM
# [14] = second compound 0.0316 µM, first compound 0.1 µM
# [15] = second compound 0.0316 µM, first compound 0.316 µM
# [16] = second compound 0.0316 µM, first compound 1 µM
# [17] = second compound 0.0316 µM, first compound 3.16 µM
# [18] = second compound 0.0316 µM, first compound 10 µM
# [19] = second compound 0.1 µM, first compound 0.0316 µM
# [20] = second compound 0.1 µM, first compound 0.1 µM
# [21] = second compound 0.1 µM, first compound 0.316 µM
# [22] = second compound 0.1 µM, first compound 1 µM
# [23] = second compound 0.1 µM, first compound 3.16 µM
# [24] = second compound 0.1 µM, first compound 10 µM
# [25] = second compound 0.316 µM, first compound 0.0316 µM
# [26] = second compound 0.316 µM, first compound 0.1 µM
# [27] = second compound 0.316 µM, first compound 0.316 µM
# [28] = second compound 0.316 µM, first compound 1 µM
# [29] = second compound 0.316 µM, first compound 3.16 µM
# [30] = second compound 0.316 µM, first compound 10 µM
# [31] = second compound 1 µM, first compound 0.0316 µM
# [32] = second compound 1 µM, first compound 0.1 µM
# [33] = second compound 1 µM, first compound 0.316 µM
# [34] = second compound 1 µM, first compound 1 µM
# [35] = second compound 1 µM, first compound 3.16 µM
# [36] = second compound 1 µM, first compound 10 µM
# 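Also: spheroids exposed to compound for 7 days before viability read.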
# 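For viability, T/C in this document: 100% = DMSO vehicle-treated spheroids.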
smiles,measurement,setting,value
Cn1ncc(Cl)c1-c1cc(C(=O)NC(CN)Cc2cccc(F)c2)sc1Cl (centres undefined) + COc1c(OCCCN2CCOCC2)ccc2c3n(c(=NC(=O)c4cnc(N)nc4)nc12)CCN3,pIC50,second compound 0.00316 µM,7.13
same,pIC50,second compound 0.01 µM,> 7.50
same,pIC50,second compound 0.0316 µM,> 7.50
same,pIC50,second compound 0.1 µM,> 7.50
same,pIC50,second compound 0.316 µM,> 7.50
same,pIC50,second compound 1 µM,> 7.50
same,"viability, T/C",[1],63.8%
same,"viability, T/C",[2],46.4%
same,"viability, T/C",[3],27.6%
same,"viability, T/C",[4],17.7%
same,"viability, T/C",[5],11.5%
same,"viability, T/C",[6],3.72%
same,"viability, T/C",[7],48.2%
same,"viability, T/C",[8],37.2%
same,"viability, T/C",[9],23.7%
same,"viability, T/C",[10],16.4%
same,"viability, T/C",[11],9.82%
same,"viability, T/C",[12],4.66%
same,"viability, T/C",[13],24.1%
same,"viability, T/C",[14],22%
same,"viability, T/C",[15],15.6%
same,"viability, T/C",[16],11.3%
same,"viability, T/C",[17],7.85%
same,"viability, T/C",[18],4.52%
same,"viability, T/C",[19],8.56%
same,"viability, T/C",[20],6.38%
same,"viability, T/C",[21],6.32%
same,"viability, T/C",[22],5.69%
same,"viability, T/C",[23],4.46%
same,"viability, T/C",[24],2.26%
same,"viability, T/C",[25],2.05%
same,"viability, T/C",[26],1.87%
same,"viability, T/C",[27],1.74%
same,"viability, T/C",[28],1.64%
same,"viability, T/C",[29],1.47%
same,"viability, T/C",[30],1.92%
same,"viability, T/C",[31],0.97%
same,"viability, T/C",[32],1.14%
same,"viability, T/C",[33],1.37%
same,"viability, T/C",[34],0.72%
same,"viability, T/C",[35],0.77%
same,"viability, T/C",[36],0.22%
Cn1nccc1Nc1nccc(-c2ccn(C(CO)c3ccc(Cl)c(F)c3)c(=O)c2)n1 (centres undefined) + COc1c(OCCCN2CCOCC2)ccc2c3n(c(=NC(=O)c4cnc(N)nc4)nc12)CCN3,pIC50,second compound 0.00316 µM,7.42
same,pIC50,second compound 0.01 µM,> 7.50
same,pIC50,second compound 0.0316 µM,> 7.50
same,pIC50,second compound 0.1 µM,> 7.50
same,pIC50,second compound 0.316 µM,> 7.50
same,pIC50,second compound 1 µM,> 7.50
same,"viability, T/C",[1],51.4%
same,"viability, T/C",[2],42.5%
same,"viability, T/C",[3],28.6%
same,"viability, T/C",[4],18.1%
same,"viability, T/C",[5],14.3%
same,"viability, T/C",[6],11%
same,"viability, T/C",[7],44.5%
same,"viability, T/C",[8],32.1%
same,"viability, T/C",[9],21.4%
same,"viability, T/C",[10],12.2%
same,"viability, T/C",[11],9.48%
same,"viability, T/C",[12],7.46%
same,"viability, T/C",[13],19.3%
same,"viability, T/C",[14],14.8%
same,"viability, T/C",[15],8.54%
same,"viability, T/C",[16],5.82%
same,"viability, T/C",[17],4.42%
same,"viability, T/C",[18],2.75%
same,"viability, T/C",[19],6.44%
same,"viability, T/C",[20],4.39%
same,"viability, T/C",[21],3.29%
same,"viability, T/C",[22],2.41%
same,"viability, T/C",[23],2.36%
same,"viability, T/C",[24],0.87%
same,"viability, T/C",[25],1.92%
same,"viability, T/C",[26],1.3%
same,"viability, T/C",[27],1.85%
same,"viability, T/C",[28],1.35%
same,"viability, T/C",[29],0.41%
same,"viability, T/C",[30],0.33%
same,"viability, T/C",[31],0.78%
same,"viability, T/C",[32],0.82%
same,"viability, T/C",[33],0.76%
same,"viability, T/C",[34],0.86%
same,"viability, T/C",[35],1.32%
same,"viability, T/C",[36],0.5%

# Source: PubChem BioAssay AID1963986 (Molecular Pharmacology Branch, DTP, NCI, 2024)
